Laboratory results reported in US10344032B2, “Agents for treating neurogenic inflammation and neuropathic hyperalgesia related disorders” (PÉCSI TUDOMÁNYEGYETEM, priority 2014, dated 2019).
Counter-ions that a name gives are not always drawn.

Row | SMILES | melting point
1 | Cc1c(C)n(Cc2ccccc2)c2ncnc(NCCc3ccc(NC(=O)c4ccccc4)cc3)c12 [Example 50, N-{4-[2-(7-Benzyl-5,6-dimethyl-7H-pyrrolo[2,3-d]pyrimidin-4-ylamino)-ethyl]-phenyl}-benzamide] | 180 to 182 °C
2 | Cc1c(C)n(Cc2ccccc2)c2ncnc(NCCc3ccc(NS(=O)(=O)c4ccc(F)cc4F)cc3)c12 [Example 54, N-{4-[2-(7-Benzyl-5,6-dimethyl-7H-pyrrolo[2,3-d]pyrimidin-4-ylamino)-ethyl]-phenyl}-2,4-difluoro-benzenesulfonamide] | 183 to 185 °C
3 | Cc1c(C)n(Cc2ccco2)c2ncnc(NCC(O)c3ccccc3)c12 (stereo not drawn) [Example 35, 2-(7-Furan-2-ylmethyl-5,6-dimethyl-7H-pyrrolo[2,3-d]pyrimidin-4-ylamino)-1-phenyl-ethanol] | 167.5 to 168 °C
4 | COc1ccc(CCN(C)c2ncnc3c2c(C)c(C)n3Cc2cccc(Cl)c2)cc1OC [Example 22, [7-(3-Chloro-benzyl)-5,6-dimethyl-7H-pyrrolo[2,3-d]pyrimidin-4-yl]-[2-(3,4-dimethoxy-phenyl)-ethyl]-methyl-amine] | 178 to 180 °C
5 | Cc1c(C)n(Cc2cccc(Cl)c2)c2ncnc(NCCc3ccc(O)cc3)c12 [Example 61, 4-{2-[7-(3-Chloro-benzyl)-5,6-dimethyl-7H-pyrrolo[2,3-d]pyrimidin-4-ylamino]-ethyl}-phenol] | 167.7 to 170 °C
6 | Cc1c(C)n(Cc2ccccc2)c2ncnc(NCCc3ccc(N4C(=O)c5ccccc5C4=O)cc3)c12 [Example 6, 2-{4-[2-(7-Benzyl-5,6-dimethyl-7H-pyrrolo[2,3-d]pyrimidin-4-ylamino)-ethyl]-phenyl}-isoindole-1,3-dione] | 219 to 221 °C
7 | OC(CNc1ncnc2c1ccn2Cc1ccccc1)c1ccccc1 (stereo not drawn) [Example 29, 2-(7-Benzyl-7H-pyrrolo[2,3-d]pyrimidin-4-ylamino)-1-phenyl-ethanol] | 195 to 197 °C
8 | CCN(CC)C(=O)Nc1ccc(CCNc2ncnc3c2c(C)c(C)n3Cc2ccccc2)cc1 [Example 53, 3-{4-[2-(7-Benzyl-5,6-dimethyl-7H-pyrrolo[2,3-d]pyrimidin-4-ylamino)-ethyl]-phenyl}-1,1-diethyl-urea] | 138.5 to 139 °C
9 | Cc1c(C)n(Cc2ccco2)c2ncnc(NCCc3ccccc3)c12 [Example 32, (7-Furan-2-ylmethyl-5,6-dimethyl-7H-pyrrolo[2,3-d]pyrimidin-4-yl)-phenethyl-amine] | 221 to 223 °C
10 | Cc1c(C)n(Cc2ccco2)c2ncnc(NCCc3ccccc3Cl)c12 [Example 31, [2-(2-Chloro-phenyl)-ethyl]-(7-furan-2-ylmethyl-5,6-dimethyl-7H-pyrrolo[2,3-d]pyrimidin-4-yl)-amine] | 128.9 to 129.2 °C
11 | Cc1c(C)n(CCCN(C)C)c2ncnc(NCCc3ccccc3Cl)c12 (as salt: salt) [Example 16, [2-(2-Chloro-phenyl)-ethyl]-[7-(3-dimethylamino-propyl)-5,6-dimethyl-7H-pyrrolo[2,3-d]pyrimidin-4-yl]-amine] | 245 to 248 °C
12 | COc1ccc(CCNc2ncnc3c2c(C)c(C)n3CCCN(C)C)cc1OC (as salt: salt) [Example 15, [2-(3,4-Dimethoxy-phenyl)-ethyl]-[7-(3-dimethylamino-propyl)-5,6-dimethyl-7H-pyrrolo[2,3-d]pyrimidin-4-yl]-amine] | 156 to 158.2 °C
13 | COc1ccc(CCNc2ncnc3c2c(C)c(C)n3CCCN(C)C)cc1 (as salt: salt) [Example 41, [7-(3-Dimethylamino-propyl)-5,6-dimethyl-7H-pyrrolo[2,3-d]pyrimidin-4-yl]-[2-(4-methoxy-phenyl)-ethyl]-amine] | > 250 °C
14 | Cc1c(C)n(Cc2ccccc2)c2ncnc(NCCc3ccc(NC(=O)c4cccc(C(F)(F)F)c4)cc3)c12 [Example 48, N-{4-[2-(7-Benzyl-5,6-dimethyl-7H-pyrrolo[2,3-d]pyrimidin-4-ylamino)-ethyl]-phenyl}-3-trifluoromethyl-benzamide] | 110 to 113 °C
15 | Cc1c(C)n(Cc2cccc(Cl)c2)c2ncnc(NCCc3ccccc3Cl)c12 [Example 21, [7-(3-Chloro-benzyl)-5,6-dimethyl-7H-pyrrolo[2,3-d]pyrimidin-4-yl]-[2-(2-chloro-phenyl)-ethyl]-amine] | 190 to 192 °C
16 | Cc1c(C)n(Cc2ccco2)c2ncnc(NCCc3cccc(F)c3)c12 [Example 33, [2-(3-Fluoro-phenyl)-ethyl]-(7-furan-2-ylmethyl-5,6-dimethyl-7H-pyrrolo[2,3-d]pyrimidin-4-yl)-amine] | 89 to 90 °C
17 | CCN(CC)C(=O)Nc1ccc(CCNc2ncnc3c2c(C)c(C)n3Cc2cccc(Cl)c2)cc1 [Example 52, 3-(4-{2-[7-(3-Chloro-benzyl)-5,6-dimethyl-7H-pyrrolo[2,3-d]pyrimidin-4-ylamino]-ethyl}-phenyl)-1,1-diethyl-urea] | 112.9 to 113.3 °C
18 | CC(=O)Nc1ccc(CCNc2ncnc3c2c(C)c(C)n3Cc2cccc(Cl)c2)cc1 [Example 45, N-(4-{2-[7-(3-Chloro-benzyl)-5,6-dimethyl-7H-pyrrolo[2,3-d]pyrimidin-4-ylamino]-ethyl}-phenyl)-acetamide] | 186.1 to 187.2 °C

Row | SMILES | melting point
19 | Cc1c(C)n(Cc2ccccc2)c2ncnc(NCCc3ccc(NC(=O)Nc4cccc(C(F)(F)F)c4)cc3)c12 [Example 57, 1-{4-[2-(7-Benzyl-5,6-dimethyl-7H-pyrrolo[2,3-d]pyrimidin-4-ylamino)-ethyl]-phenyl}-3-(3-trifluoromethyl-phenyl)-urea] | 161.9 to 162.9 °C
20 | Cc1c(C)n(Cc2cccc(Cl)c2)c2ncnc(NCCc3cccc(F)c3)c12 [Example 19, [7-(3-Chloro-benzyl)-5,6-dimethyl-7H-pyrrolo[2,3-d]pyrimidin-4-yl]-[2-(3-fluoro-phenyl)-ethyl]-amine] | 232 to 235 °C
21 | COc1ccc(CCNc2ncnc3c2c(C)c(C)n3Cc2cccc(Cl)c2)cc1 [Example 23, [7-(3-Chloro-benzyl)-5,6-dimethyl-7H-pyrrolo[2,3-d]pyrimidin-4-yl]-[2-(4-methoxy-phenyl)-ethyl]-amine] | 214 to 216 °C
22 | Cc1c(C)n(CCCN(C)C)c2ncnc(NCC(O)c3ccccc3)c12 (stereo not drawn) (as salt: salt) [Example 18, 2-[7-(3-Dimethylamino-propyl)-5,6-dimethyl-7H-pyrrolo[2,3-d]pyrimidin-4-ylamino]-1-phenyl-ethanol] | 209 to 212.9 °C
23 | Nc1ccc(CCNc2ncnc3c2ccn3Cc2cncc(Br)c2)cc1 [Example 11, [2-(4-Amino-phenyl)-ethyl]-[7-(5-bromo-pyridin-3-ylmethyl)-7H-pyrrolo[2,3-d]pyrimidin-4-yl]-amine] | 158.8 to 160.9 °C
24 | COc1ccc(CCNc2ncnc3c2ccn3Cc2ccccc2)cc1 [Example 13, (7-Benzyl-7H-pyrrolo[2,3-d]pyrimidin-4-yl)-[2-(4-methoxy-phenyl)-ethyl]-amine] | 140 to 141 °C
25 | COc1ccc(CCNc2ncnc3c2c(C)c(C)n3Cc2cccc(Cl)c2)cc1OC [Example 20, [7-(3-Chloro-benzyl)-5,6-dimethyl-7H-pyrrolo[2,3-d]pyrimidin-4-yl]-[2-(3,4-dimethoxy-phenyl)-ethyl]-amine] | 118 to 120 °C
26 | COc1ccc(CCNc2ncnc3c2ccn3Cc2cncc(Br)c2)cc1OC (as salt: salt) [Example 37, [7-(5-Bromo-pyridin-3-ylmethyl)-7H-pyrrolo[2,3-d]pyrimidin-4-yl]-[2-(3,4-dimethoxy-phenyl)-ethyl]-amine] | 119 to 120.4 °C
27 | Clc1ccccc1CCNc1ncnc2c1ccn2Cc1cncc(Br)c1 [Example 36, [7-(5-Bromo-pyridin-3-ylmethyl)-7H-pyrrolo[2,3-d]pyrimidin-4-yl]-[2-(2-chloro-phenyl)-ethyl]-amine] | 114 to 115 °C
28 | Clc1ccccc1CCNc1ncnc2c1ccn2Cc1ccccc1 [Example 25, (7-Benzyl-7H-pyrrolo[2,3-d]pyrimidin-4-yl)-[2-(2-chloro-phenyl)-ethyl]-amine] | 180 to 182.3 °C
29 | Cc1c(C)n(Cc2ccccc2)c2ncnc(NCCc3cccc(F)c3)c12 [Example 43, (7-Benzyl-5,6-dimethyl-7H-pyrrolo[2,3-d]pyrimidin-4-yl)-[2-(3-fluoro-phenyl)-ethyl]-amine] | 237.6 to 240 °C
30 | CC(=O)Nc1ccc(CCNc2ncnc3c2c(C)c(C)n3Cc2ccco2)cc1 [Example 46, N-{4-[2-(7-Furan-2-ylmethyl-5,6-dimethyl-7H-pyrrolo[2,3-d]pyrimidin-4-ylamino)-ethyl]-phenyl}-acetamide] | 206.8 to 208.1 °C
31 | Cc1c(C)n(Cc2cccc(Cl)c2)c2ncnc(NCCc3ccc(NS(C)(=O)=O)cc3)c12 [Example 55, N-(4-{2-[7-(3-Chloro-benzyl)-5,6-dimethyl-7H-pyrrolo[2,3-d]pyrimidin-4-ylamino]-ethyl}-phenyl)-methanesulfonamide] | 125 to 129 °C
32 | Cc1c(C)n(Cc2ccccc2)c2ncnc(NCCc3ccc(N(C)C)cc3)c12 [Example 62, (7-Benzyl-5,6-dimethyl-7H-pyrrolo[2,3-d]pyrimidin-4-yl)-[2-(4-dimethylamino-phenyl)-ethyl]-amine] | 95 to 96.6 °C
33 | Cc1c(C)n(CCCN(C)C)c2ncnc(NCCc3ccccc3)c12 (as salt: salt) [Example 14, [7-(3-Dimethylamino-propyl)-5,6-dimethyl-7H-pyrrolo[2,3-d]pyrimidin-4-yl]-phenethyl-amine] | 236 to 238 °C
34 | c1ccc(CCNc2ncnc3c2ccn3Cc2ccccc2)cc1 [Example 26, (7-Benzyl-7H-pyrrolo[2,3-d]pyrimidin-4-yl)-phenethyl-amine] | 210 to 211.8 °C
35 | Cc1c(C)n(Cc2ccccc2)c2ncnc(NCCc3ccc(NC(=O)Nc4ccc(F)cc4F)cc3)c12 [Example 7, 1-{4-[2-(7-Benzyl-5,6-dimethyl-7H-pyrrolo[2,3-d]pyrimidin-4-ylamino)-ethyl]-phenyl}-3-(2,4-difluoro-phenyl)-urea] | 208 to 209.2 °C
36 | Cc1c(C)n(CCCN(C)C)c2ncnc(NCCc3ccc(N)cc3)c12 (as salt: salt) [Example 12, [2-(4-Amino-phenyl)-ethyl]-[7-(3-dimethylamino-propyl)-5,6-dimethyl-7H-pyrrolo[2,3-d]pyrimidin-4-yl]-amine] | 237.2 to 239.9 °C
